Assay results as given in patent publication US10106538B2, “Inhibitors of protein kinases” (PRINCETON DRUG DISCOVERY INC, priority 2015, dated 2018).

Experiments:
Assay in all cases: Off-chip Mobility Shift Assay (MSA) kinase inhibition
Type in all cases: biochemical
p38β = target: T1, p38β (Homo sapiens, UniProt Q15759); settings: inhibitor concentration 1 μM
T1 construct: purchased Carna Biosciences
Description: (§1) Off-chip Mobility Shift Assay (MSA) by Cama Biosciences, Inc (Natick, Mass.) a used for measuring the kinase activity and inhibition. • 1) The 5 μL of x4 compound solution, 5 μL of x4 Substrate/ATP/Metal solution, and 10 μL of x2 kinase solution were prepared with assay buffer (20 mM HEPES, 0.01% Triton X100, 2 mM DTT, pH 7.5) and mixed and incubated in a well of polypropylene 384 well microplate for 1 or 5 hour(s)* at room temperature. (*; depending on kinase) • 2) 70 μL of Termination Buffer (QuickScout Screening Assist A; Cama Biosciences) was added to the welt • 3) The reaction mixture was applied to LabChip system (Perkin Elmer), and the product and substrate peptide peaks were separated and quantitated. • 4) The kinase reaction was evaluated by the product ratio calculated from peak heights of product (P) and substrate (S) peptides (P/(P+S)). • 5) The reaction conditions were followed according to assay protocols of Ca n Biosciences, Inc (BMA 3F, 1-5-5 Minatojima-Minamimachi, Chuo-ku, Kobe 650-0047, Japan; www.carnabio.com). • 6 Data analysis: The readout value of reaction control (complete reaction mixture) was set as a 0% inhibition, and the readout value of background (Enzyme (−)) was set as a 100% inhibition, then the percent inhibition of each test solution was calculated, […]

ROCK2 = target: T2, ROCK2 (Homo sapiens, UniProt O75116); settings: inhibitor concentration 1 μM
T2 construct: purchased Carna Biosciences
Description: as §1

YES(T348I) = target: T3, YES(T348I) (Homo sapiens, UniProt P07947, T348I); settings: inhibitor concentration 1 μM
T3 construct: purchased Carna Biosciences
Description: as §1

MAP2K5 = target: T4, MAP2K5 (Homo sapiens, UniProt Q13163); settings: inhibitor concentration 1 μM
T4 construct: purchased Carna Biosciences
Description: as §1

PKD1 = target: T5, PKD1 (Homo sapiens, UniProt Q15139); settings: inhibitor concentration 1 μM
T5 construct: purchased Carna Biosciences
Description: as §1

EPHA5 = target: T6, EPHA5 (Homo sapiens, UniProt P54756); settings: inhibitor concentration 1 μM
T6 construct: purchased Carna Biosciences
Description: as §1

KIT(V654A) = target: T7, KIT(V654A) (Homo sapiens, UniProt P10721, V654A); settings: inhibitor concentration 1 μM
T7 construct: purchased Carna Biosciences
Description: as §1

RET(Y791F) = target: T8, RET(Y791F) (Homo sapiens, UniProt P07949, Y791F)
T8 construct: purchased Carna Biosciences
Description: as §1

WNK3 = target: T9, WNK3 (Homo sapiens, UniProt Q9BYP7); settings: inhibitor concentration 1 μM
T9 construct: purchased Carna Biosciences
Description: as §1

FGFR1 = target: T10, FGFR1 (Homo sapiens, UniProt P11362); settings: inhibitor concentration 1 μM
T10 construct: purchased Carna Biosciences
Description: as §1

MST3 = target: T11, MST3 (Homo sapiens, UniProt Q9Y6E0); settings: inhibitor concentration 1 μM
T11 construct: purchased Carna Biosciences
Description: as §1

MST4 = target: T12, MST4 (Homo sapiens, UniProt Q9P289); settings: inhibitor concentration 1 μM
T12 construct: purchased Carna Biosciences
Description: as §1

FRK = target: T13, FRK (Homo sapiens, UniProt P42685); settings: inhibitor concentration 1 μM
T13 construct: purchased Carna Biosciences
Description: as §1

RET(M918T) = target: T14, RET(M918T) (Homo sapiens, UniProt P07949, M918T)
T14 construct: purchased Carna Biosciences
Description: as §1

skMLCK = target: T15, skMLCK (Homo sapiens, UniProt Q9H1R3); settings: inhibitor concentration 1 μM
T15 construct: purchased Carna Biosciences
Description: as §1

ACK = target: T16, ACK (Homo sapiens, UniProt Q07912)
T16 construct: purchased Carna Biosciences
Description: as §1

FLT4 = target: T17, FLT4 (Homo sapiens, UniProt P35916); settings: inhibitor concentration 1 μM
T17 construct: purchased Carna Biosciences
Description: as §1

KIT(D816Y) = target: T18, KIT(D816Y) (Homo sapiens, UniProt P10721, D816Y); settings: inhibitor concentration 1 μM
T18 construct: purchased Carna Biosciences
Description: as §1

DDR1 = target: T19, DDR1 (Homo sapiens, UniProt Q08345)
T19 construct: purchased Carna Biosciences
Description: as §1

MAP2K3 = target: T20, MAP2K3 (Homo sapiens, UniProt P46734); settings: inhibitor concentration 1 μM
T20 construct: purchased Carna Biosciences
Description: as §1

MAP2K6 = target: T21, MAP2K6 (Homo sapiens, UniProt P52564); settings: inhibitor concentration 1 μM
T21 construct: purchased Carna Biosciences
Description: as §1

FYN(isoform b) = target: T22, FYN(isoform b) (Homo sapiens, UniProt P06241)
T22 construct: purchased Carna Biosciences
Description: as §1

ROCK1 = target: T23, ROCK1 (Homo sapiens, UniProt Q13464); settings: inhibitor concentration 1 μM
T23 construct: purchased Carna Biosciences
Description: as §1

MST1 = target: T24, MST1 (Homo sapiens, UniProt Q13043)
T24 construct: purchased Carna Biosciences
T24 sequence (Q13043 1-487): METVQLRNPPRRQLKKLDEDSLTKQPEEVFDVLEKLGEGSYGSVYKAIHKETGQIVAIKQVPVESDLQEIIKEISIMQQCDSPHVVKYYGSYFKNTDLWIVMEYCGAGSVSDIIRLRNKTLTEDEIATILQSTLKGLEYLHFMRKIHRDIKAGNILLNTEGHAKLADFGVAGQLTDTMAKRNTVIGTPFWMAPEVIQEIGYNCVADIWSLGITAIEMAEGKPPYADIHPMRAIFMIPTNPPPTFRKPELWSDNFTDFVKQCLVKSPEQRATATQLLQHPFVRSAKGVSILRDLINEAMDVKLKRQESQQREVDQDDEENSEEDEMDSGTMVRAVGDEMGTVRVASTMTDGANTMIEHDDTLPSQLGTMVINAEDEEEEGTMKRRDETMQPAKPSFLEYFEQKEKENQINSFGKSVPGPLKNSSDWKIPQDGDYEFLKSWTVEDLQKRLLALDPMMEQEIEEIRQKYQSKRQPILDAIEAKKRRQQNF
Description: as §1

RET(G691S) = target: T25, RET(G691S) (Homo sapiens, UniProt P07949, G691S)
T25 construct: purchased Carna Biosciences
Description: as §1

[1] = inhibitor concentration 0.01 μM

T16 sequence (Q07912 whole entry): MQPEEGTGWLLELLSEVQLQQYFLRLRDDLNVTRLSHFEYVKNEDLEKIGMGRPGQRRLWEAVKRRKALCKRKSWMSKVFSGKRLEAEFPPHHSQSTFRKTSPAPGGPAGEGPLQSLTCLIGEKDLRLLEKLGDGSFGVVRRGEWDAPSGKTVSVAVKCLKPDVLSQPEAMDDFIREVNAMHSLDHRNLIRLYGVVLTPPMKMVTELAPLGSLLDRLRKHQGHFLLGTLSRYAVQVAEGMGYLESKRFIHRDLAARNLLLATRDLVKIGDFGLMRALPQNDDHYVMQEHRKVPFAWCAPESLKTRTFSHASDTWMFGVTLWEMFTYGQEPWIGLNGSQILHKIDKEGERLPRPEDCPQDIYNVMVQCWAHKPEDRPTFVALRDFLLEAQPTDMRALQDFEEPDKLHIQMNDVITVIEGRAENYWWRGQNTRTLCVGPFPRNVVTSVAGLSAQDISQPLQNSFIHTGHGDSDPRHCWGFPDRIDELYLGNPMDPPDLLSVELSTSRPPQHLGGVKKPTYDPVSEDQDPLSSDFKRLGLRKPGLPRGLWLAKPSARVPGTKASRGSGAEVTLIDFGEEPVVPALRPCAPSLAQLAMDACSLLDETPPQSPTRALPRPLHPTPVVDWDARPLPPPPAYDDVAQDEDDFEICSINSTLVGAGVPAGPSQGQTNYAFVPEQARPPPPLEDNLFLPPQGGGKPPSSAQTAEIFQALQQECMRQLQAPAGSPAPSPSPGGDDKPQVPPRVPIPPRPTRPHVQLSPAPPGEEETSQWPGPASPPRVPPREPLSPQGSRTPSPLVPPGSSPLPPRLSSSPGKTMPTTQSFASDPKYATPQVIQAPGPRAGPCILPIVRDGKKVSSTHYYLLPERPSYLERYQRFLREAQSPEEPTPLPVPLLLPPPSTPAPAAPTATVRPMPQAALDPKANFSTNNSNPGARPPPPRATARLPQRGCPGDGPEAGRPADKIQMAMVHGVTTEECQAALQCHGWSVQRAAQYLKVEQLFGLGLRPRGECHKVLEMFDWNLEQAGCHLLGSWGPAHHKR
T22 sequence (P06241 1-534 isoform P06241-2): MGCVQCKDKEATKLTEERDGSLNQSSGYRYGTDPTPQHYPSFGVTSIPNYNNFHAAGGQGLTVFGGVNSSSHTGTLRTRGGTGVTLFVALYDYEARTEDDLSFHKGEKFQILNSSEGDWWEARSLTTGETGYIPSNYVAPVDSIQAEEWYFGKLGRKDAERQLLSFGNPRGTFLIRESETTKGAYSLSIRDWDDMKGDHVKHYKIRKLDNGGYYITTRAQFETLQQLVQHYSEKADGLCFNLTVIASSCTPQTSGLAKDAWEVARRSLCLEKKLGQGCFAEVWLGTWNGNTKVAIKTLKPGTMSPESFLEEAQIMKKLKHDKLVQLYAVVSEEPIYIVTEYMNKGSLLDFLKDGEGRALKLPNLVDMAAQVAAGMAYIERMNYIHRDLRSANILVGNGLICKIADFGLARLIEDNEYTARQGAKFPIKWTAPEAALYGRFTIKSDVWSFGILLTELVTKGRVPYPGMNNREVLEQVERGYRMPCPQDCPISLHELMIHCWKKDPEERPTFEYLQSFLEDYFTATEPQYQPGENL
T8 sequence (P07949 29-1114 Y791F): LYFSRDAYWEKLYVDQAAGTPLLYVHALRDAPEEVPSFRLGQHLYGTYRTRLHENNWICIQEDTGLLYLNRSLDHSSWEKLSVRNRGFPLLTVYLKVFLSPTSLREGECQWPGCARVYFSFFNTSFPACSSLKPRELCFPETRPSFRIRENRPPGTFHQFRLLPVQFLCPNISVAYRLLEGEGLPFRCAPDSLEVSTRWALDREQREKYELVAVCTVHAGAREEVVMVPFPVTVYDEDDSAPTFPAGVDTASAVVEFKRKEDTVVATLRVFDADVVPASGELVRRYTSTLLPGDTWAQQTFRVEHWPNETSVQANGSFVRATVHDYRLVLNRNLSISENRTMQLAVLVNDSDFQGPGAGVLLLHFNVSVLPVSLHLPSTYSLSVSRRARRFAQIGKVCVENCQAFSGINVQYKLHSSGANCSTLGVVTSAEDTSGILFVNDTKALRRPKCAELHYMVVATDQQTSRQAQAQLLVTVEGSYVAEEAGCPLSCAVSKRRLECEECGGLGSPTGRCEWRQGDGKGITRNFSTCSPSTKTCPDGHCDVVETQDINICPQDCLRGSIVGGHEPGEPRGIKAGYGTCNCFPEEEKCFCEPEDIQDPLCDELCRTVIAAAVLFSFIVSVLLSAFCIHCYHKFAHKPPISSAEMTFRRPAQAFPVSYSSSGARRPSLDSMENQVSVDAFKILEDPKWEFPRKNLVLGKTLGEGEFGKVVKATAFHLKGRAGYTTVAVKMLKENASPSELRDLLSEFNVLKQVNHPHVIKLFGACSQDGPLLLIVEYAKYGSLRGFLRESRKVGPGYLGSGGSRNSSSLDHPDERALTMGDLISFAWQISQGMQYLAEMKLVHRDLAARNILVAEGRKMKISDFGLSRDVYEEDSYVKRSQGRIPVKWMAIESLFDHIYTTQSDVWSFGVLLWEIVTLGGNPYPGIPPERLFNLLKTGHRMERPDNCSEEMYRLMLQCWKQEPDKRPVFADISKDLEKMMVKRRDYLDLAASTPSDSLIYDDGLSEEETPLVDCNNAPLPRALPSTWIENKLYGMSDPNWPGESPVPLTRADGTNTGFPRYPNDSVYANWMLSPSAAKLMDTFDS
T19 sequence (Q08345 19-913): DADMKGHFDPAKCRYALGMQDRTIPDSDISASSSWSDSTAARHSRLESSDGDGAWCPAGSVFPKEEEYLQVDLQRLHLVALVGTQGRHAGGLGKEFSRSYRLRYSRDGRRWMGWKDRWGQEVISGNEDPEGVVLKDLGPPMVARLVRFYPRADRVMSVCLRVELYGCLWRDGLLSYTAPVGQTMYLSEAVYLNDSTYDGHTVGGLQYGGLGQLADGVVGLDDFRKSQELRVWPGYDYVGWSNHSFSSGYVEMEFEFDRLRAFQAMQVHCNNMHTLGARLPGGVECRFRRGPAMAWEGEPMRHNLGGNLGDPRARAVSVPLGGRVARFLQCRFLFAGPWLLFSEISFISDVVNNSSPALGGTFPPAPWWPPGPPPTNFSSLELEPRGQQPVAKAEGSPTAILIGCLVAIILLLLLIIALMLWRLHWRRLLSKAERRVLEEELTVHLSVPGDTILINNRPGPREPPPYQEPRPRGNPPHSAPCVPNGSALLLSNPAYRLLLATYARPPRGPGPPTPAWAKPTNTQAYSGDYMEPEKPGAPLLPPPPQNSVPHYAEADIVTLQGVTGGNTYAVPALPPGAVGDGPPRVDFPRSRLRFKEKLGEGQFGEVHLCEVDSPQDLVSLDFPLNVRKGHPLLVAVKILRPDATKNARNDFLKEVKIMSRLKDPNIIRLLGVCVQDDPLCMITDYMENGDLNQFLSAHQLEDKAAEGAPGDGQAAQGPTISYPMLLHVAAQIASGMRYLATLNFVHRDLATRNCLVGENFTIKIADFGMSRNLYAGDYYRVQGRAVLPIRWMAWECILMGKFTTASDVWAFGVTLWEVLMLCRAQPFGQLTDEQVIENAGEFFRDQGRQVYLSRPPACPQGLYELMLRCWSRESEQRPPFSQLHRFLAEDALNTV
T25 sequence (P07949 29-1114 G691S): as the sequence (P07949 29-1114 Y791F) above, with G663S, F763Y counted along it
T14 sequence (P07949 29-1114 M918T): as the sequence (P07949 29-1114 Y791F) above, with F763Y, M890T counted along it
T5 sequence (Q15139 whole entry): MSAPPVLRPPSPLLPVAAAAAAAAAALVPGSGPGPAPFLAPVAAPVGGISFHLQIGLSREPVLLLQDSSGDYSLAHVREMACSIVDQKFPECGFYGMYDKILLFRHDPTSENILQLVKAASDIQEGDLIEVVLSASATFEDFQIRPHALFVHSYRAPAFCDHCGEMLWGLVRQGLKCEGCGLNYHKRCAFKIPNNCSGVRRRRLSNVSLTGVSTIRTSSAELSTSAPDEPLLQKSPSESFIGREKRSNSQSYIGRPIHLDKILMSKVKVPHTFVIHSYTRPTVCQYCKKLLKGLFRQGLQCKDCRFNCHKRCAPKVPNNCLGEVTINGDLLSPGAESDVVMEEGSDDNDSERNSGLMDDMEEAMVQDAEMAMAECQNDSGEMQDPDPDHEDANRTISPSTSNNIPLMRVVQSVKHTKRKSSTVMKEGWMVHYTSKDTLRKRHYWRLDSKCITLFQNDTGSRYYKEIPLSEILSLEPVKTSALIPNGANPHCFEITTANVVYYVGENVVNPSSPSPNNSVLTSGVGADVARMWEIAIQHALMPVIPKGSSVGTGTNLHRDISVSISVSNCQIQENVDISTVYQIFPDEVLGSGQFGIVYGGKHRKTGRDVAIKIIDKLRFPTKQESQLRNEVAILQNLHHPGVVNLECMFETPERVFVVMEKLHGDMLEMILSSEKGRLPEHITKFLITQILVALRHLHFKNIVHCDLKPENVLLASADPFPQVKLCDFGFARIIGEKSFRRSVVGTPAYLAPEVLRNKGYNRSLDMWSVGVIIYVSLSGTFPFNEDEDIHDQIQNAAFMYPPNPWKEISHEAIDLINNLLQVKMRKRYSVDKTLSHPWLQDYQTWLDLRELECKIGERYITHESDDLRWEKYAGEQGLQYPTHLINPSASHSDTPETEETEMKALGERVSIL
T13 sequence (P42685 whole entry): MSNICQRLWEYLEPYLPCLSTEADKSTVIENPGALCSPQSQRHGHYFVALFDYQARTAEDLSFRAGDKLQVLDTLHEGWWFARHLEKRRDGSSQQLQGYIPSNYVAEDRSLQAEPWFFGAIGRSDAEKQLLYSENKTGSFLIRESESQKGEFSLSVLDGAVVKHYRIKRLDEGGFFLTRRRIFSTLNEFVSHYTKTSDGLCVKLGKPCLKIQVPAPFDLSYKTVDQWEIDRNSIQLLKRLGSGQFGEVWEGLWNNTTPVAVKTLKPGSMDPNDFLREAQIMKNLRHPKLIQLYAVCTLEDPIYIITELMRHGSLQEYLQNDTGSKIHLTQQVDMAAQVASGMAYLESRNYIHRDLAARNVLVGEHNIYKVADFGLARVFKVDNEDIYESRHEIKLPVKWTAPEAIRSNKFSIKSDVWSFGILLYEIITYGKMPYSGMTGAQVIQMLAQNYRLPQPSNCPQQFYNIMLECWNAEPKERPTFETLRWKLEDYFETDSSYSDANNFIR

inhibition at 1 µM (p38β): > 50%
inhibition at 1 µM (ROCK2): < 50%
inhibition at 1 µM (YES(T348I)): > 50%
inhibition at 1 µM (MAP2K5): > 50%
inhibition at 1 µM (PKD1): < 50%
inhibition at 1 µM (EPHA5): < 50%
inhibition at 1 µM (KIT(V654A)): > 50%
inhibition at 0.01 µM (RET(Y791F); [1]): < 30%
inhibition at 0.1 µM (RET(Y791F); inhibitor concentration 0.1 μM): < 50%
inhibition at 1 µM (RET(Y791F); inhibitor concentration 1 μM): > 50%
inhibition at 1 µM (WNK3): > 50%
inhibition at 1 µM (FGFR1): > 50%
inhibition at 1 µM (MST3): < 50%
inhibition at 1 µM (MST4): < 50%
inhibition at 1 µM (FRK): > 50%
inhibition at 0.01 µM (RET(M918T); [1]): < 30%
inhibition at 0.1 µM (RET(M918T); inhibitor concentration 0.1 μM): < 50%
inhibition at 1 µM (RET(M918T); inhibitor concentration 1 μM): > 50%
inhibition at 1 µM (skMLCK): > 50%
inhibition at 0.01 µM (ACK; [1]): < 30%
inhibition at 0.1 µM (ACK; inhibitor concentration 0.1 μM): < 50%
inhibition at 1 µM (ACK; inhibitor concentration 1 μM): > 50%
inhibition at 1 µM (FLT4): > 50%
inhibition at 1 µM (KIT(D816Y)): < 50%
inhibition at 0.01 µM (DDR1; [1]): < 30%
inhibition at 0.1 µM (DDR1; inhibitor concentration 0.1 μM): > 50%
inhibition at 1 µM (DDR1; inhibitor concentration 1 μM): > 50%
inhibition at 1 µM (MAP2K3): > 50%
inhibition at 1 µM (MAP2K6): < 50%
inhibition at 0.01 µM (FYN(isoform b); [1]): < 30%
inhibition at 0.1 µM (FYN(isoform b); inhibitor concentration 0.1 μM): < 50%
inhibition at 1 µM (FYN(isoform b); inhibitor concentration 1 μM): > 50%
inhibition at 1 µM (ROCK1): < 50%
inhibition at 0.01 µM (MST1; [1]): < 30%
inhibition at 0.1 µM (MST1; inhibitor concentration 0.1 μM): > 50%
inhibition at 1 µM (MST1; inhibitor concentration 1 μM): > 50%
inhibition at 0.01 µM (RET(G691S); [1]): < 30%
inhibition at 0.1 µM (RET(G691S); inhibitor concentration 0.1 μM): < 50%
inhibition at 1 µM (RET(G691S); inhibitor concentration 1 μM): > 50%
Compound: O=C(c1c(F)ccc(NS(=O)(=O)CCCO)c1F)c1c[nH]c2ncc(-c3ccc(Cl)cc3)cc12 [200-17, N-[3-[5-(4-chlorophenyl)-1H-pyrrolo[2,3-b]pyridine-3-carbonyl]-2,4-difluorophenyl]-3-hydroxypropane-1-sulfonamide]
